The values below are quoted from earlier work in patent publication US7115281B2, “Processes for the preparation of oral dosage formulations of modafinil” (Ranbaxy Laboratories Limited, priority 2002, dated 2006).

Structures are written as SMILES.

Test in series [1]: not given
The source holds these as a separate data set.

In the case of `NC(=O)C[S+]([O-])C(c1ccccc1)c1ccccc1` (centres unmarked) [modafinil], the Solubility in water result is “less than 1 mg/ml”. Moreover, in series [1], the “Stability at higher temperatures” value was “unstable”.
